What is called inhibition is the share of the control response that was lost under treatment. For orientation: LD50 means the dose at which mortality reaches 50%. Higher therefore signals lower toxicity.

Where two headings read alike, the source gives them in different places.

Data set [1] has as its system rabbit blood platelets (platelet rich plasma), ADP-induced aggregation. Description: inhibition of platelet aggregation in rabbit platelet rich plasma (in vitro), induced by ADP. The conditions noted are these: Oryctolagus cuniculus, Platelet, read-out: percentage of inhibition, ADP; for inhibition at 10 µg/mL: 10 μg/ml; for inhibition at 3 µg/mL: 3 μg/ml. In kind it is cell-based. The protocol:
(§1) In this example, the inhibition of platelet aggregation in rabbit platelet rich plasma (in vitro) is tested.
(§2) In this test, 9 vol. of blood is sampled from the carotid artery of rabbits (2 to 2.5 Kg) and placed in a silicon-coated flask containing 1 vol. of 3.8% sodium citrate. The thus obtained blood is centrifuged at 1,000 rpm for 15 minutes to obtain platelet rich plasma (referred to as "PRP" hereinafter). The aggregation of blood platelets is observed using an aggregometer (made by Bryston Co.) and the degree of aggregation after the addition of aggregation promoting substances is measured by nephelometry, i.e., through increase in light transmission.
(§3) The PRP (0.9 ml) is placed in a silicon-coated cuvett of the aggregometer. Then, 0.05 ml of physiological saline solution containing various concentrations of test reagents or control reagents is added and the mixture is allowed to stand for one minute. Compounds promoting aggregation are then added and the absorbancy of the solution is measured and the percent inhibition of aggregation is calculated according to the following equation: [formula] C: Transmittancy showing the maximum percent aggregation by physiological saline solution
(§4) D: Transmittancy showing the maximum percent aggregation by sample
(§5) Test for the inhibition of platelet aggregation induced by ADP, collagen and thrombin.

Data set [2] in a line: acute toxicity, Behrens-Karber's method. In kind it is in vivo. The conditions noted are these: in vivo; mouse, oral. The method, then:
In this example, the acute toxicity of compounds of the invention is determined by Behrens-Karber's method using, 5 male dd-strain for each group weighing 20±1 g. A 0.3% CMC suspension of the test compound (concentration of the test compound: 100 mg/ml) is then orally administered to each mouse.

Data set [3] has as its system rabbit blood platelets (platelet rich plasma), collagen-induced aggregation. Description: inhibition of platelet aggregation in rabbit platelet rich plasma (in vitro), induced by collagen. In kind it is cell-based. The conditions noted are these: Oryctolagus cuniculus, Platelet, read-out: percentage of inhibition, collagen; for inhibition at 10 µg/mL: 10 μg/ml; for inhibition at 3 µg/mL: 3 μg/ml; for inhibition at 1 µg/mL: 1 μg/ml. The protocol:
as §1, §2, §3, §4, §5

Data set [4] relates to human platelet rich plasma, ADP-induced aggregation. Description: inhibition of platelet aggregation in human platelet rich plasma, induced by ADP. The class given is cell-based. As to conditions: human PRP, read-out: percentage inhibition, ADP; for inhibition at 30 µg/mL: 30 μg/ml; for inhibition at 100 µg/mL: 100 μg/ml; for inhibition at 10 µg/mL: 10 μg/ml. The protocol: as §2, §3, §4
(§6) In this example, the same procedures are repeated as in Example 10 except that human platelet rich plasma is used in place of rabbit platelet rich plasma.

In data set [5] the test system is human platelet rich plasma, collagen-induced aggregation. Description: inhibition of platelet aggregation in human platelet rich plasma, induced by collagen. In kind it is cell-based. The conditions noted are these: human PRP, read-out: percentage inhibition, collagen; for inhibition at 30 µg/mL: 30 μg/ml; for inhibition at 100 µg/mL: 100 μg/ml; for inhibition at 10 µg/mL: 10 μg/ml. The method, then:
as §2, §3, §4, §6

[6] abbreviates: rabbit PRP, ADP 10^-5 M, 100 μg/ml.
Setting [7] is: rabbit PRP, ADP 10^-5 M, 30 μg/ml.

With `O=C(NCc1ccccc1)c1ccccc1SSc1ccccc1C(=O)NCc1ccccc1` [Compound II, 2,2'-dithiobis(N-benzylbenzamide)], the inhibition at 100 µg/mL worked out at 2.7% in data set [1] (setting [6]) and 1.2% in data set [3] (rabbit PRP, 100 μg/ml). This molecule had a 50% lethal dose (LD50) in data set [2] of at least 300 mg/kg.
For `CCCCN(CCCC)C(=O)c1ccccc1SSc1ccccc1C(=O)N(CCCC)CCCC` [Compound VIII, 2,2'-dithiobis(N-dibutylbenzamide)], the inhibition at 30 µg/mL in data set [1] (setting [7]) is 0%; in data set [3] (rabbit PRP, 30 μg/ml), 0%. Besides, the inhibition at 100 µg/mL amounted to 9% in data set [1] (setting [6]) and 13% in data set [3] (rabbit PRP, 100 μg/ml). Besides, the LD50 in data set [2] is at least 1000 mg/kg.
On to `O=C(Nc1ccccc1Cl)c1ccccc1SSc1ccccc1C(=O)Nc1ccccc1Cl` [Compound X, 2,2'-dithiobis(N-o-chlorophenylbenzamide)], for which the inhibition at 10 µg/mL came to 0% in data set [1] (rabbit PRP, ADP 10^-5 M) and 4% in data set [3] (rabbit PRP). Also, the inhibition at 30 µg/mL came to 24% in data set [1] (setting [7]) and 63% in data set [3] (rabbit PRP, 30 μg/ml). Further, the inhibition at 100 µg/mL in data set [1] (setting [6]) was determined as 96%; in data set [3] (rabbit PRP, 100 μg/ml), 100%. The LD50 in data set [2] was at least 1000 mg/kg.
In the case of `O=C(Nc1ccccc1[N+](=O)[O-])c1ccccc1SSc1ccccc1C(=O)Nc1ccccc1[N+](=O)[O-]` [Compound XII, 2,2'-dithiobis(N-o-nitrophenylbenzamide)], the figures for the inhibition at 30 µg/mL in data set [1] and in data set [3] were 20% and 45%, respectively. For the same molecule, the inhibition at 100 µg/mL in data set [1] came to 50%; in data set [3], 90%. The molecule also had an LD50 in data set [2] of at least 1000 mg/kg.
Take `CCCCCCCCCCCC(=O)OCCNC(=O)c1ccccc1SSc1ccccc1C(=O)NCCOC(=O)CCCCCCCCCCC` [Compound XIX, 2,2'-dithiobis(N-2-dodecanoyloxyethylbenzamide)]: the inhibition at 30 µg/mL in data set [4] worked out at 5%; in data set [1] (setting [7]) it was 12%; in data set [5], 16%; in data set [3] (rabbit PRP, 30 μg/ml) it was 54%. The inhibition at 100 µg/mL came to 35% in data set [4]; 72% in data set [1] (setting [6]); 46% in data set [5]; 100% in data set [3] (rabbit PRP, 100 μg/ml). The LD50 in data set [2] was at least 1000 mg/kg.
Take `O=C(NCCCN1CCOCC1)c1ccccc1SSc1ccccc1C(=O)NCCCN1CCOCC1` [Compound XL, 2,2'-dithiobis(N-3-morpholinopropylbenzamide)]: the inhibition at 10 µg/mL was determined as 65% in data set [4]; 69% in data set [1] (rabbit PRP, ADP 10^-5 M); 40% in data set [5]; 98% in data set [3] (rabbit PRP). The inhibition at 30 µg/mL in data set [4] is 85%; in data set [1] (setting [7]) it was 100%; in data set [5], 100%; in data set [3] (rabbit PRP, 30 μg/ml) it was 100%. Besides, the inhibition at 100 µg/mL worked out at 100% in data set [4]; 100% in data set [5]; 100% in data set [3] (rabbit PRP, 100 μg/ml). In addition, the inhibition at 3 µg/mL worked out at 26% in data set [1] (rabbit PRP, ADP 10^-5 M) and 21% in data set [3] (rabbit PRP). The molecule further came in with an LD50 in data set [2] of at least 1000 mg/kg.
Regarding `O=C(NC(CO)(CO)CO)c1ccccc1SSc1ccccc1C(=O)NC(CO)(CO)CO` [Compound XLI, 2,2'-dithiobis[N-2-hydroxy-1,1-di-(1'-hydroxymethyl)-ethylbenzamide]], the inhibition at 30 µg/mL in data set [1] (setting [7]) turned out to be 22%; in data set [3] (rabbit PRP, 30 μg/ml) it was 7%. For the same molecule, the inhibition at 100 µg/mL in data set [1] (setting [6]) was 71%; in data set [3] (rabbit PRP, 100 μg/ml) it was 96%. For the same molecule, the LD50 in data set [2] is at least 1000 mg/kg.
Turning to `COCCNC(=O)c1ccccc1SSc1ccccc1C(=O)NCCOC` [Compound XVIII, 2,2'-dithiobis(N-2-methyloxyethylbenzamide)], the inhibition at 30 µg/mL in data set [4] came to 20%; in data set [5], 45%; in data set [3] (rabbit PRP, 30 μg/ml), 100%. Moreover, the inhibition at 100 µg/mL stood at 65% in data set [4]; 75% in data set [1] (setting [6]); 100% in data set [5]; 100% in data set [3] (rabbit PRP, 100 μg/ml). Further, the inhibition at 10 µg/mL in data set [5] stood at 10%; in data set [3] (rabbit PRP), 40%. For the same molecule, in data set [2], the LD50 was at least 1000 mg/kg.
For `CCOC(CN1CCN(C(=O)c2ccccc2SSc2ccccc2C(=O)N2CCN(CC(OCC)c3ccccc3)CC2)CC1)c1ccccc1` (stereo not drawn) [Compound XXIX, 2,2'-dithiobis[N'-(2-phenyl-2-ethyloxyethyl)benzpiperazide]], the inhibition at 10 µg/mL in data set [1] (rabbit PRP, ADP 10^-5 M) stood at 32%; in data set [3] (rabbit PRP) it was 55%. Besides, the inhibition at 30 µg/mL came out at 43% in data set [1] (setting [7]) and 100% in data set [3] (rabbit PRP, 30 μg/ml). Also, the LD50 in data set [2] was at least 1000 mg/kg. The inhibition at 3 µg/mL in data set [3] (rabbit PRP) turned out to be 0%.
Turning to `O=C(NCCNCCO)c1ccccc1SSc1ccccc1C(=O)NCCNCCO` [Compound XXV, 2,2'-dithiobis[N-2-(2-hydroxyethylamino)-ethylbenzamide]], the inhibition at 100 µg/mL in data set [4] was 10%; in data set [5], 25%. Further, the inhibition at 30 µg/mL in data set [1] (setting [7]) was 10%; in data set [5] it was 4%; in data set [3] (rabbit PRP, 30 μg/ml), 42%. The LD50 in data set [2] is at least 1000 mg/kg.
With `O=C(NC1CCCCC1)c1ccccc1SSc1ccccc1C(=O)NC1CCCCC1` [Compound XXVI, 2,2'-dithiobis(N-cyclohexylbenzamide)], the inhibition at 30 µg/mL in data set [1] (setting [7]) was 30%; in data set [3] (rabbit PRP, 30 μg/ml), 25%. The median lethal dose (LD50) in data set [2] was at least 1000 mg/kg.
For the molecule `O=C(c1ccccc1SSc1ccccc1C(=O)N1CCOCC1)N1CCOCC1` [Compound XXVII, 2,2'-dithiobis(benzmorpholide)], the inhibition at 30 µg/mL in data set [4] amounted to 5%; in data set [1] (setting [7]) it was 100%; in data set [5] it was 35%; in data set [3] (rabbit PRP, 30 μg/ml), 100%. Besides, the inhibition at 100 µg/mL in data set [4] is 45%; in data set [5] it was 100%. For the same molecule, the inhibition at 3 µg/mL in data set [1] (rabbit PRP, ADP 10^-5 M) was 40%; in data set [3] (rabbit PRP) it was 59%. The inhibition at 10 µg/mL was 60% in data set [1] (rabbit PRP, ADP 10^-5 M); 0% in data set [5]; 100% in data set [3] (rabbit PRP). In data set [2], the LD50 was at least 1000 mg/kg. Also, the inhibition at 1 µg/mL in data set [3] (rabbit PRP) was 40%.
As for `O=C(c1ccccc1SSc1ccccc1C(=O)N1CCN(c2ccccc2)CC1)N1CCN(c2ccccc2)CC1` [Compound XXVIII, 2,2'-dithiobis(N'-phenylbenzpiperazide)], the inhibition at 10 µg/mL was determined as 19% in data set [1] (rabbit PRP, ADP 10^-5 M) and 55% in data set [3] (rabbit PRP). Besides, the inhibition at 30 µg/mL amounted to 55% in data set [1] (setting [7]) and 99% in data set [3] (rabbit PRP, 30 μg/ml). This molecule also returned an LD50 in data set [2] of at least 1000 mg/kg. In addition, the inhibition at 3 µg/mL in data set [3] (rabbit PRP) was 14%.
On to `O=C(c1ccccc1SSc1ccccc1C(=O)N1CCN(CC=Cc2ccccc2)CC1)N1CCN(CC=Cc2ccccc2)CC1` [Compound XXX, 2,2'-dithiobis[N'-(3-phenyl-propene-1-yl)benzpiperazide]], for which the inhibition at 30 µg/mL was 17% in data set [1] (setting [7]) and 40% in data set [3] (rabbit PRP, 30 μg/ml). The same molecule gave an LD50 in data set [2] of at least 1000 mg/kg.
On to `O=C(NCCO)c1cc(Cl)ccc1SSc1ccc(Cl)cc1C(=O)NCCO` [Compound XXXI, 2,2'-dithiobis(5-chloro-N-2-hydroxyethyl)benzamide], for which the inhibition at 10 µg/mL was determined as 10% in data set [4]; 43% in data set [1] (rabbit PRP, ADP 10^-5 M); 12% in data set [5]; 100% in data set [3] (rabbit PRP). In addition, the inhibition at 30 µg/mL turned out to be 50% in data set [4]; 80% in data set [1] (setting [7]); 60% in data set [5]; 100% in data set [3] (rabbit PRP, 30 μg/ml). Also, the inhibition at 100 µg/mL is 88% in data set [4]; 100% in data set [1] (setting [6]); 100% in data set [5]; 100% in data set [3] (rabbit PRP, 100 μg/ml). Besides, the inhibition at 3 µg/mL in data set [1] (rabbit PRP, ADP 10^-5 M) stood at 0%; in data set [3] (rabbit PRP), 100%. The molecule also yielded an LD50 in data set [2] of at least 1000 mg/kg. The inhibition at 1 µg/mL in data set [3] (rabbit PRP) came to 26%.
